Laboratory results taken from ChEMBL document CHEMBL1130522, “Orevactaene,1 a novel binding inhibitor of HIV-1 rev protein to Rev response element (RRE) from Epicoccum nigrum WC47880” (Bioorg Med Chem Lett, 1997).

Key:
[1] = Inhibitory activity towards HIV-I regulatory protein Rev and its viral RNA-binding site, Rev response element (RRE) binding
[2] = system: M109; assay: The compound was tested for its cytotoxicity on the murine tumor cell line M109; type: functional, cell-based; conditions: Mus musculus

Structure (SMILES): CCC(C)CC(C)/C=C(/C=C(C)/C=C/C=C/C=C/C=C/C=C/c1cc2c(c(=O)o1)[C@H](O)[C@@H](O)[C@H](C(O)C(O)CO)O2)C(=O)O (some centres not stated)
- IC50 [1]: 3.6 µM
- IC50 [2]: 82 µM
